Measurements taken from patent US20110142866A1, “PEPTIDE ANALOGUES AND CONJUGATES THEREOF” (Eldrug S.A., priority 2007, published 2011).
“Also recorded” adds a separate entry of the source. Positions of bridges follow the written chain, without caps; N, C: chain ends. No end group written: not given here.

What was measured:
[1] = tested on: respective peptides conjugated to BSA or KLH; assay: ELISA total IgG antibody responses to the respective peptide; format: in vivo, SJL/J mice
Procedure: (§1) Blood was collected and sera isolated from mice prior to and 4 weeks after immunization with CFA or 14 days after the last immunization with reduced mannan conjugates. MBP87-99 or [A^91, A^96]MBP87-99 peptides conjugated to BSA or KLH were coated onto polyvinyl chloride (PVC) microtiter plates at 10 μg/ml in 0.2 M NaHCO3 buffer, pH 9.6, 0/N at 4° C. Non-specific binding was blocked with 2% BSA for 1.0 h at RT. After washing (0.05 Tween 20/PBS), serial dilutions of sera were added and incubated for a further 2 h at RT. The plates were washed and bound antibody was detected using HRP-conjugated sheep anti-mouse antibody (1/1000 dilution in PBS) (Amersham, UK) and developed using 2,2′-azino-di(3-ethylbenzthiazoline)6-sulfonic acid (ABTS) (Sigma, UK). Absorbance at 405 nm was recorded using a Fluostar Optima microplate reader (BMG labtech, Offenburg, Germany).
(§2) ELISpot assays for IFN-γ and IL-4 secretion by T cells and ELISA assays for binding of sera to native MBP protein or peptide were carried out as previously described^3, 4, 20, 21. Mean values were compared using the Student's two-tailed t-test. P value threshold of p<0.01 indicates a statistically significant difference.

[2] = tested on: IFN-γ secretion by T cells; assay: IFN-γ ELISpot of spleen cells from immunized mice; format: in vivo, SJL/J mice; conditions: for cross-reaction of IFN-γ producing T cells with native MBP87-99 peptide: recall peptide native MBP87-99
Procedure: (§3) Female 6-8 week old SJL/J mice used in all experiments, were purchased from Walter and Eliza Hall Institute (VIC Australia) and housed at the Biological Research Laboratory at Burnet Institute at Austin, Heidelberg, Australia. SJL/J mice were immunized twice on days 0, 14 intradermally (base of tail) with 50 μg MBP83-99 peptide analogue-KLH-reduced mannan.
(§4) ELISpot analyses specific T cell responses to antigens by detecting the secretion of specific cytokines. Spleen cells from immunized SJL/J mice were isolated 14 days after immunization and assessed by ELISpot for IFN-γ, IL-4 or IL-10 secretion by T cells. IFN-γ ELISpot assay was performed on MultiScreen-IP Filter Plate (MAIP S4510) with hydrophobic PVDF filters (Millipore, UK) while IL-4 and IL-10 ELISpot was performed on MultiScreen-HA Filter Plate (MAHA S4510) with mixed cellulose esters filters (Millipore, UK). MAIP S4510 plates were pre-wet with 50 μl of 70% ethanol, washed 5 times with 200 μl sterile PBS and coated with 70 μl of 5 μg/ml anti-IFN-γ capture antibody, AN18 (Mabtech, Australia) in PBS and left to incubate at 4° C. O/N. While 70 μl of 5 μg/ml anti-IL-4 and anti-IL-10 capture antibody (Mabtech, Australia) was added directly to MAHA S4510 plates and incubated at 4° C. O/N without 70% ethanol treatment. Following 5 washes with PBS, plates were blocked by adding 200 μl of culture media (supplemented with 2.5% FCS) and incubated for 2 hours at 37° C. The blocking media was discarded and 10 μg/ml recall peptides (MBP83-99 peptide analogues not conjugated to KLH-reduced mannan) were added into each defined well. Con A (1.0 μg/ml; IL-4 and IFN-γ) or LPS (1.0 μg/ml; IL-10) were used as an internal positive controls and no peptide was used as negative control. Triplicate wells were set up for each condition. 5×10^5 spleen cells in 100 μl culture media were seeded into each well and incubated for 18 hours for IFN-γ, 24 hours for IL-4 and 48 hours for IL-10 at 37° C. Plates were washed 5 times PBS/0.05% Tween 20 and 5 times PBS and incubated for 2 hours at RT with anti-murine IFN-γ, IL-4 or IL-10 monoclonal antibody-biotin. Plates were washed and streptavidin-ALP was added at 1.0 μg/ml and incubated for 2.0 hours at RT. Spots of activity were detected using a colorimetric AP kit (Biorad, Hercules, Calif. USA) and counted using an AID ELISpot plate reader (Autoimmun Diagnostika GmbH, Germany). Data are presented as mean spot forming units (sfu) per 0.5×10^6 cells +/−standard error of the mean (SEM).
(§5) MBP87-99, [R^91, A^96]MBP87-99 or [A^91, A^96]MBP87-99 peptides were dissolved in PBS and emulsified in an equal volume of complete Freund's adjuvant (CFA) which contained 1.0 mg/ml of heat killed Mycobacterium tuberculosis H37RA (Sigma, Victoria, Australia). SJL/J mice were given one subcutaneous injection containing 50 μg peptide into the base of tail.
(§6) SJL/J mice were immunized twice on days 0 and 14 intradermally (base of tail) with 50 μg MBP87-99-KLH-reduced mannan, [R^91, A^96]MBP87-99-KLH-reduced mannan or [A^91, A^96]MBP87-99-KLH-reduced mannan conjugates.
(§7) ELISpot detects specific T cell responses to antigens by measuring the secretion of specific cytokines from individual cells. Spleen cells from immunized SJL/J mice were isolated 28 days after CFA immunization or 14 days after the last immunization with reduced mannan-peptides and assessed by ELISpot for IFN-γ and IL-4 secretion by T cells. IFN-γ ELISpot assay was performed on MultiScreen-IP Filter Plate (MAIP S4510) with hydrophobic PVDF filters (Millipore, UK), while IL-4 ELISpot assays were performed on MultiScreen-HA Filter Plate (MAHA S4510) with mixed cellulose esters filters (Millipore, UK). MAIP S4510 plates were pre-weted with 50 μl of 70% ethanol, washed 5 times with 200 μl of sterile phosphate-buffered saline (PBS) and coated with 70 μl of 5 μg/ml anti-IFN-γ capture antibody, AN18 (Mabtech, Australia) in PBS and incubated O/N at 4° C. […]

native MBP87-99 peptide = assay: ELISA cross reaction of sera with native MBP87-99 peptide; format: in vivo; conditions: 1/500 and 1/1,000 sera dilutions
Procedure: as §1, §2

[3] = tested on: IL-4 secretion by T cells; assay: IL-4 ELISpot of spleen cells from immunized mice; format: in vivo, SJL/J mice
Procedure: as §3, §4, §5, §6, §7

MBP72-85 induced EAE = assay: Induction-inhibition of MBP-EAE in Lewis rats; format: in vivo; conditions: co-injection (500 μg) with MBP72-85 (25 μg)
[4] = peptide conjugated to reduced mannan
[5] = 50 μg peptide conjugated to reduced mannan, two intradermal injections, spleen cells 14 days post-immunization
[6] = 50 μg peptide emulsified in CFA, one injection, spleen cells 28 days

| Substance | IgG antibody responses (in words) [1, 4] | IgG antibody responses (in words) ([1]; peptide emulsified in CFA) | IFN-γ secreting T cells (in words) [2, 5] | IFN-γ secreting T cells (in words) [2, 6] | cross-reaction of IFN-γ producing T cells with native MBP87-99 peptide [2, 4] | cross-reaction of IFN-γ producing T cells with native MBP87-99 peptide ([2]; peptide emulsified in CFA) | cross-reaction of antibodies with native MBP87-99 peptide (native MBP87-99 peptide; [4]) | cross-reaction of antibodies with native MBP87-99 peptide (native MBP87-99 peptide; peptide emulsified in CFA) | IL-4 secreting T cells (in words) [3, 5] | IL-4 secreting T cells (in words) [3, 6] | inhibition of EAE (MBP72-85 induced EAE) | further results |
| --- | --- | --- | --- | --- | --- | --- | --- | --- | --- | --- | --- | --- |
| cyclo, head-to-tail, VHFFANIVTARTP (VHFFXNIVTXRTP; cyclised or stapled) [cyclo(87-99)[A^91, A^96]MBP87-99] | higher levels | no IgG antibodies | reduce IFN-γ production | reduce IFN-γ production | did not cross-react | did not cross-react | did not react | did not react | moderate levels | moderate levels | – | decrease of IFN-γ compared to linear MBP87-99 conjugated to reduced mannan [2, 4]: ~50%; decrease of IFN-γ compared to linear MBP87-99 emulsified in CFA [2, 4]: ~70%; decrease of IFN-γ compared to the same peptide emulsified in CFA [2, 4]: ~50% |
| VHFFRNIVTARTP [[R^91, A^96]MBP87-99] | – | – | – | – | – | – | – | – | very high | low levels | – | decrease of IFN-γ relative to native MBP87-99 [2, 4]: 70%; decrease of IFN-γ relative to native MBP87-99 ([2]; peptide emulsified in CFA): 30%; inhibition of EAE (MBP72-85 induced EAE; listed as [Arg^91, Ala^96]MBP87-99): completely prevented the development of EAE; inhibition of EAE (MBP72-85 induced EAE; listed as [Arg^91,Ala^96]MBP87-99): completely prevented the induction of EAE |
| Val^87-His-Phe-Phe-Arg^91-Asn-Ile-Val-Thr-Ala^96-Arg-Thr-Pro^99 [cyclo(87-99)[Arg^91, Ala^96] MBP87-99] | – | – | – | – | – | – | – | – | – | – | strong inhibitor of EAE | inhibition of EAE (MBP72-85 induced EAE; listed as cyclo(87-99)[Arg^91,Ala^96]MBP87-99): completely prevented the induction of EAE |
| Val-His-Phe-Phe-Lys^91-Asn-Ile-Val-Thr-Ala^96-Arg-Thr-Pro^99 (VHFFKNIVTARTP; lactam 5-C) [cyclo(91-99)[Ala^96] MBP87-99] | – | – | – | – | – | – | – | – | – | – | low inhibitory activity | – |
| VHFFANIVTARTP [[A^91, A^96]MBP87-99] | – | No IgG antibody levels | no IFN-γ was detected | strong levels | did not cross-react | did not cross-react | did not cross-react | did not cross-react | high levels | high levels | – | – |
| VHFFKNIVTPRTP [MBP87-99, reference compound] | higher levels | very low levels and Low | high levels | high levels | – | – | – | – | did not induce; also recorded: No detectable | did not induce; also recorded: No detectable | – | – |
